Experimental data as given in patent US8808879B2, “Phototherapy devices and methods comprising substituted carbazole compounds” (Nitto Denko Corporation, priority 2010, dated 2014).

Key:
actinic keratoses = assay: Photodynamic treatment of actinic keratoses lesions with topical photosensitiser pro-drug and red OLED; details: 20% topical solution, illuminated with red OLED about 14-18 hours after application
[1] = tested on: CHO-K1 (Chinese Hamster Ovarian Cancer, ATCC, CRL-2243) cell line; assay: Ex-vivo photodynamic efficacy study of ALA with red OLED light (microscopy, PpIX fluorescence, MTT cell viability)
pathological myopia = assay: Verteporphin photodynamic therapy of pathological myopia with red OLED; assay type: in vivo, person; details: about 6 mg/m^2 intravenously, retina illuminated with red OLED about 15 minutes after start of infusion
[2] = tested on: age-related macular degeneration; assay: Verteporphin photodynamic therapy of age-related macular degeneration with red OLED; assay type: in vivo, person; details: about 6 mg/m^2 intravenously, retina illuminated with red OLED about 15 minutes after start of infusion
[3] = tested on: presumed ocular histoplasmosis; parameters: species or system person; details: in vivo, iv

Q: With `Cl.NCC(=O)CCC(=O)O` [5-Aminolevulinic acid HCl] as the compound, how does the “number or severity of the lesions after the treatment” value (actinic keratoses) read?
A: reduced

Q: With `NCC(=O)CCC(=O)O` [ALA, 5-aminolevulinic acid] as the compound, how does the cytotoxicity at 1000 µM ([1]; Cricetulus griseus, CHO-K1, light or radiation study, read-out: cell destroyed compared with reference (MTT cell viability)) read?
A: ~90%

Q: And the “cell morphology under optical microscope after light irradiation” value ([1]; after 25 J/cm^2 red light irradiation, leafy type cells transform to droplet type (FIG. 9))?
A: significant and irreversible cell death

Q: And the “concentration of ALA required” value ([1]; at the light dose of 27 J/cm^2)?
A: at least 1 mM

Q: With `C=Cc1c(C)c2cc3nc(cc4[nH]c(cc5nc(cc1[nH]2)C(C)=C5CCC(=O)O)c(CCC(=O)OC)c4C)[C@@]1(C)C3=CC=C(C(=O)OC)[C@H]1C(=O)OC` [Verteporphin] as the compound, how does the “patient's vision after treatment” value (pathological myopia) read?
A: stabilized

Q: And the “patient's vision after treatment” value [2]?
A: stabilized

Q: And the “patient's vision after treatment” value [3]?
A: stabilized
